Assay results from US7982042B2, “Thiozanthene derivatives as delta-opioid modulators” (priority 2003, dated 2011).
Where two headings read alike, the source gives them in different places.

Tests used:
[1] = biological target: T1, Rat brain mu opioid receptor (Rattus norvegicus, UniProt P33535); assay: Rat brain mu opioid receptor binding assay ([3H]DAMGO)
T1 construct: from tissue; host or cells: forebrain of male Sprague Dawley rats
Description: • Procedure: Male, Sprague Dawley (150-250 g, VAF, Charles River, Kingston, N.Y.) are killed by CO2, and their brains removed and placed immediately in ice cold Tris HCl buffer (50 mM, pH 7.4). The forebrains are separated from the remainder of the brain by a coronal transection, beginning dorsally at the colliculi and passing ventrally through the midbrain-pontine junction. After dissection, the forebrains are homogenized in Tris buffer in a Teflon®-glass homogenizer. The homogenate is diluted to a concentration of 1 g of forebrain tissue per 80 mL Tris and centrifuged at 39,000×g for 10 min. The pellet is resuspended in the same volume of Tris buffer containing 5 mM MgCl2 with several brief pulses from a Polytron homogenizer. This particulate preparation is used for the mu-opioid binding assays. […] Kd and Ki values are calculated using GraphPad PRISM data analysis program.

human mu opioid receptor = biological target: T2, human mu opioid receptor (Homo sapiens, UniProt P35372); assay: [35S]GTPγS binding assay in CHO-hμ cell membranes; type: biochemical; settings: inhibition relative to 1 uM DAMGO; for inhibition at 10 µM: read-out: hMOR GTPγS % I @10 μM
T2 construct: purchased Receptor Biology, Inc. (Baltimore, Md.); host or cells: CHO cells expressing the human mu receptor (membranes)
T2 sequence (P35372 whole entry): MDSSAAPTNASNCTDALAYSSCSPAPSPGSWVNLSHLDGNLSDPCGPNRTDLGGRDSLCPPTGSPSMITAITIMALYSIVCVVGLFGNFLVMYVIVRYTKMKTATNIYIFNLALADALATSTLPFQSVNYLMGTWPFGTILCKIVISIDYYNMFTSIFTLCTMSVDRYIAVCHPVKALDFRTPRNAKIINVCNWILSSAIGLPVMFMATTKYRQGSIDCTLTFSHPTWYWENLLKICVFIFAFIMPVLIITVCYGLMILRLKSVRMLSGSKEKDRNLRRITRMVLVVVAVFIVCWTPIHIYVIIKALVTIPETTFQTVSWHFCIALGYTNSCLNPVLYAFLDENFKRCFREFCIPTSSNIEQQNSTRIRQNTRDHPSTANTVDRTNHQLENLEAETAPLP
Description: CHO-hμ cell membranes are purchased from Receptor Biology, Inc. (Baltimore, Md.). About 10 mg/ml of membrane protein is suspended in 10 mM TRIS-HC pH 7.2, 2 mM EDTA, 10% sucrose.
(§1) Membranes are maintained at 4-8° C. 1 ml of membranes is added into 15 ml cold binding assay buffer. The assay buffer contains 50 mM HEPES, pH 7.6, 5 mM MgCl2, 100 mM NaCl, 1 mM DTT and 1 mM EDTA. The membrane suspension is homogenized with a Polytron 2 times and centrifuged at 3000 rpm for 10 min. The supernatant is then centrifuged at 18,000 rpm for 20 min. The pellet is saved in a tube and 10 ml assay buffer is added to the tube. The pellet and buffer are mixed with a Polytron.
(§2) The pellet membranes (20 μg/ml) are preincubated with SPA (10 mg/ml) at 25 C′ for 45 min in the assay buffer. The SPA (5 mg/ml) coupled with membranes (10 μg/ml) is then incubated with 0.5 nM [^35S]GTPgS in the same HEPES buffer containing 50 μM GDP in total volume of 200 μl. Increasing concentrations of receptor agonists are used to stimulate [^35S]GTPgS binding. The basal binding is tested in the absence of agonists and non-specific binding is tested in the present 10 μM unlabeled GTPγS. The data are analyzed on a Top counter.
% of Basal=(stimulate−non-specific)*100/(basal−non specific). % inhibition value values are calculated using a formula, % Inhibition=(% Basal of 1 uM DAMGO−% Basal of compound)*100/(% Basal of 1 uM DAMGO−100)

[2] = biological target: T3, Rat brain delta opioid receptor (Rattus norvegicus, UniProt P33533); assay: Rat brain delta opioid receptor binding
T3 construct: from tissue; host or cells: rat brain
T3 sequence (P33533 whole entry): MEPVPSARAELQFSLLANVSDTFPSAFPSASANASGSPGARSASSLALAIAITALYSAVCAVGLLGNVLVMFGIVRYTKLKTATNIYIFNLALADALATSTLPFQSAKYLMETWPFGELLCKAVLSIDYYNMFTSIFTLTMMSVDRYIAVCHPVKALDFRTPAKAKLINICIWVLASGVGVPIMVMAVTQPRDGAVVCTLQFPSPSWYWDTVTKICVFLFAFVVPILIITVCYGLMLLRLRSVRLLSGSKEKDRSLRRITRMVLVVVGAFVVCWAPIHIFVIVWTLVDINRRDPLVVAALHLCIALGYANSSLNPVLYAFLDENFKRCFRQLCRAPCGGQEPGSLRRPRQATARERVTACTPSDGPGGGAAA

[3] = biological target: T4, human delta opioid receptor (Homo sapiens, UniProt P41143); assay: [35S]GTPγS binding assay in CHO-hδ cell membranes; type: biochemical
T4 construct: purchased Receptor Biology, Inc. (Baltimore, Md.); host or cells: CHO cells expressing the human delta receptor (membranes)
T4 sequence (P41143 whole entry): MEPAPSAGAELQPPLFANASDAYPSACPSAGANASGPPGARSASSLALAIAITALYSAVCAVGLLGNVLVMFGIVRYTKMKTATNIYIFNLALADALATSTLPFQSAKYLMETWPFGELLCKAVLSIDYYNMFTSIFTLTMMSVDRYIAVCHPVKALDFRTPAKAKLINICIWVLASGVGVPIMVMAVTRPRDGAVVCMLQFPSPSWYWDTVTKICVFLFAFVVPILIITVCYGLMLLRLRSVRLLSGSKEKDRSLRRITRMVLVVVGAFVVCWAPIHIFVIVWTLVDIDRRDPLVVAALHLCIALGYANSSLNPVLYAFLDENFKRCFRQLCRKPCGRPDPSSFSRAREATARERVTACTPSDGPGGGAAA
Description: CHO-hδ cell membranes are purchased from Receptor Biology, Inc. (Baltimore, Md.). 10 mg/ml of membrane protein is suspended in 10 mM TRIS-HC pH 7.2, 2 mM EDTA, 10% sucrose.
as §1, with “buffer contained” for “buffer contains”, “added into” for “added to”
as §2, with “25° C.” for “25 C′”, “presence of” for “present”, “GTP S.” for “GTPγS.”

[4] = hDOR GTPγS EC50, human delta opioid receptor GTPγS functional assay
[5] = human delta opioid receptor GTPγS functional assay, read-out: hDOR GTPγS EC50

T1 sequence (P33535 whole entry): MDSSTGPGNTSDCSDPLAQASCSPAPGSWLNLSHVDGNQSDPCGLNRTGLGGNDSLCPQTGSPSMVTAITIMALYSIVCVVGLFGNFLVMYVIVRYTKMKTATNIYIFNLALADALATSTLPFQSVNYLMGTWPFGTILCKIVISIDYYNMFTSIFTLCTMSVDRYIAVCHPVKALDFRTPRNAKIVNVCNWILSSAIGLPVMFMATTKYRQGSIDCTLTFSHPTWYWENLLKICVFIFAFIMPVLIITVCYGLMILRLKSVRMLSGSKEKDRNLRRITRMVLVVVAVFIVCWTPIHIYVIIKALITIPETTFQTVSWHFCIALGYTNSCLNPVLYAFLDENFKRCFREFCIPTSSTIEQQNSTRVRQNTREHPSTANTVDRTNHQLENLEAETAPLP

CCN(CC)C(=O)c1ccc2c(c1)Oc1ccccc1C2=C1CCNCC1 [Compound 3, 9-Piperidin-4-ylidene-9H-xanthene-3-carboxylic acid diethylamide]
Ki ([1]; rMOR Ki): 6790 nM
inhibition at 10 µM (human mu opioid receptor): 1%
Ki ([2]; rDOR Ki): 0.95 nM
EC50 [3, 4]: 47 nM

CCN(CC)C(=O)c1ccc2c(c1)OCc1ccccc1C2=C1CCN(Cc2ccc3c(c2)OCO3)CC1 [Compound 4, 11-(1-Benzo[1,3]dioxol-5-ylmethyl-piperidin-4-ylidene)-6,11-dihydro-dibenzo[b,e]oxepine-3-carboxylic acid diethylamide]
Ki ([1]; read-out: rMOR Ki): 301 nM
inhibition at 10 µM (human mu opioid receptor): 9%
Ki ([2]; rDOR Ki): 0.39 nM
EC50 [3, 5]: 552 nM

CCN(CC)C(=O)c1ccc2c(c1)Oc1ccccc1C2=C1CCN(C)CC1 [Compound 7, 9-(1-Methyl-piperidin-4-ylidene)-9H-xanthene-3-carboxylic acid diethylamide]
Ki ([1]; rMOR Ki): 9190 nM
inhibition at 10 µM (human mu opioid receptor): 1%
Ki ([2]; rDOR Ki): 25.7 nM

C=CCN1CCC(=C2c3ccccc3Oc3cc(C(=O)N(CC)CC)ccc32)CC1 [Compound 8, 9-(1-Allyl-piperidin-4-ylidene)-9H-xanthene-3-carboxylic acid diethylamide]
Ki ([1]; read-out: rMOR Ki): 2820 nM
inhibition at 10 µM (human mu opioid receptor): 1%
Ki ([2]; rDOR Ki): 2.1 nM
EC50 [3, 5]: 620 nM

CCN(CC)C(=O)c1ccc2c(c1)Oc1ccccc1C2=C1CCN(CCc2ccccc2)CC1 [Compound 22]
Ki ([1]; read-out: rMOR Ki): 2130 nM
inhibition at 10 µM (human mu opioid receptor): 2%
Ki ([2]; rDOR Ki): 45.4 nM
EC50 [3, 5]: > 10000 nM

CCN(CC)C(=O)c1ccc2c(c1)Oc1ccccc1C2=C1CC2CCC(C1)N2 [Compound 24, 9-(8-Aza-bicyclo[3.2.1]oct-3-ylidene)-9H-xanthene-3-carboxylic acid diethylamide]
Ki ([1]; rMOR Ki): 5690 nM
inhibition at 10 µM (human mu opioid receptor): 1%
Ki ([2]; rDOR Ki): 0.57 nM
EC50 [3, 4]: 10.2 nM

CCNC(=O)c1ccc2c(c1)OCc1ccccc1C2=C1CC2CCC(C1)N2CCc1ccccc1 [Compound 26, 1-(8-Phenethyl-8-aza-bicyclo[3.2.1]oct-3-ylidene)-6,11-dihydro-dibenzo[b,e]oxepine-3-carboxylic acid ethylamide]
Ki ([1]; read-out: rMOR Ki): 15.6 nM
hMOR GTPγS % I @10 μM (human mu opioid receptor): 41.00%
Ki ([2]; read-out: rDOR Ki): 5480 nM

CCN(CC)C(=O)c1ccc2c(c1)Oc1ccccc1C2=C1CCN(Cc2ccoc2)CC1 [Compound 28, 9-(1-Furan-3-ylmethyl-piperidin-4-ylidene)-9H-xanthene-3-carboxylic acid diethylamide]
Ki ([1]; rMOR Ki): 811 nM
inhibition at 10 µM (human mu opioid receptor): 24%
Ki ([2]; rDOR Ki): 0.07 nM
EC50 [3, 4]: 70.3 nM

CCN(CC)C(=O)c1ccc2c(c1)Oc1ccccc1C2=C1CCN(Cc2ccccn2)CC1 [Compound 29]
Ki ([1]; rMOR Ki): 362 nM
inhibition at 10 µM (human mu opioid receptor): 34%
Ki ([2]; rDOR Ki): 0.05 nM
EC50 [3, 4]: 31.6 nM

CCN(CC)C(=O)c1ccc2c(c1)Oc1ccccc1C2=C1CCN(Cc2ccccc2O)CC1 [Compound 30]
Ki ([1]; read-out: rMOR Ki): 912 nM
inhibition at 10 µM (human mu opioid receptor): 24%
Ki ([2]; rDOR Ki): 10.9 nM
EC50 [3, 5]: 2480 nM

CCN(CC)C(=O)c1ccc2c(c1)Oc1ccccc1C2=C1CCN(C(=N)N)CC1 [Compound 31, 9-(1-Carbamimidoyl-piperidin-4-ylidene)-9H-xanthene-3-carboxylic acid diethylamide]
Ki ([1]; read-out: rMOR Ki): 564 nM
inhibition at 10 µM (human mu opioid receptor): 14%
Ki ([2]; rDOR Ki): 29.8 nM
EC50 [3, 5]: 253 nM

CCN(CC)C(=O)c1ccc2c(c1)Oc1ccccc1C2=C1CCN(CCO)CC1 [Compound 35, 9-[1-(2-Hydroxy-ethyl)-piperidin-4-ylidene]-9H-xanthene-3-carboxylic acid diethylamide]
Ki ([1]; read-out: rMOR Ki): > 10000 nM
inhibition at 10 µM (human mu opioid receptor): 17%
Ki ([2]; rDOR Ki): 7.01 nM
EC50 [3, 5]: 271 nM

CCN(CC)C(=O)c1ccc2c(c1)Oc1ccccc1C2=C1CCN(C=Nc2ccccc2)CC1 [Compound 36, 9-(1-Phenyliminomethyl-piperidin-4-ylidene)-9H-xanthene-3-carboxylic acid diethylamide]
Ki ([1]; rMOR Ki): > 10000 nM
inhibition at 10 µM (human mu opioid receptor): 14%
Ki ([2]; rDOR Ki): 0.79 nM
EC50 [3, 4]: 42.5 nM

CCN(CC)C(=O)c1ccc2c(c1)Oc1ccccc1C2=C1CCN(C=S)CC1 [Compound 37, 9-(1-Thioformyl-piperidin-4-ylidene)-9H-xanthene-3-carboxylic acid diethylamide]
Ki ([1]; rMOR Ki): > 10000 nM
inhibition at 10 µM (human mu opioid receptor): 5%
Ki ([2]; rDOR Ki): 2.02 nM
EC50 [3, 4]: 921 nM

C=CCN1C2CCC1CC(=C1c3ccccc3Oc3cc(C(=O)N(CC)CC)ccc31)C2 [Compound 38, 9-(8-Allyl-8-aza-bicyclo[3.2.1]oct-3-ylidene)-9H-xanthene-3-carboxylic acid diethylamide]
Ki ([1]; rMOR Ki): 5520 nM
Ki ([2]; rDOR Ki): 31.8 nM
EC50 [3, 4]: 342 nM

CCN(CC)C(=O)c1ccc2c(c1)Oc1ccccc1C2=C1CC2CCC(C1)N2CCOC [Compound 39, 9-[8-(2-Methoxy-ethyl)-8-aza-bicyclo[3.2.1]oct-3-ylidene]-9H-xanthene-3-carboxylic acid diethylamide]
Ki ([1]; rMOR Ki): 1680 nM
Ki ([2]; rDOR Ki): 8.43 nM
EC50 [3, 4]: 94.9 nM

CCN(CC)C(=O)c1ccc2c(c1)Oc1ccccc1C2=C1CC2CCC(C1)N2CCSC [Compound 40, 9-[8-(Methylsulfanyl-ethyl)-8-aza-bicyclo[3.2.1]oct-3-ylidene]-9H-xanthene-3-carboxylic acid diethylamide]
Ki ([1]; rMOR Ki): > 10000 nM
Ki ([2]; rDOR Ki): 12 nM
EC50 [3, 4]: 267 nM

CCN(CC)C(=O)c1ccc2c(c1)Oc1ccccc1C2C1CCNCC1 (centres unmarked) [Compound 42, 9-Piperidin-4-yl-9H-xanthene-3-carboxylic acid diethylamide]
Ki ([1]; read-out: rMOR Ki): 8790 nM
inhibition at 10 µM (human mu opioid receptor): 4%
Ki ([2]; read-out: rDOR Ki): 14.7 nM
EC50 [3, 5]: 266 nM

CCN(CC)C(=O)c1ccc2c(c1)Oc1ccccc1C2=C1CC2CCC(C1)N2Cc1ccccn1 [Compound 44]
Ki ([1]; rMOR Ki): 77.2 nM
inhibition at 10 µM (human mu opioid receptor): 28%
Ki ([2]; rDOR Ki): 0.15 nM
EC50 [3, 4]: 0.873 nM

CCN(CC)C(=O)c1ccc2c(c1)Sc1ccccc1C2=C1CC2CCC(C1)N2 [Compound 48, 9-(8-Aza-bicyclo[3.2.1]oct-3-ylidene)-9H-thioxanthene-3-carboxylic acid diethylamide]
Ki ([1]; rMOR Ki): > 100 nM
Ki ([2]; rDOR Ki): 0.9 nM
EC50 [3, 4]: 18.8 nM

CCN(CC)C(=O)c1ccc2c(c1)Sc1ccccc1C2=C1CC2CCC(C1)N2CC1CC1 [Compound 49]
Ki ([1]; rMOR Ki): > 100 nM
Ki ([2]; rDOR Ki): 25 nM
EC50 [3, 4]: 252 nM

CCN(CC)C(=O)c1ccc2c(c1)Sc1ccccc1C2=C1CC2CCC(C1)N2CCCSC [Compound 50]
Ki ([1]; rMOR Ki): > 100 nM
Ki ([2]; rDOR Ki): 10.2 nM
EC50 [3, 4]: 236 nM

CCN(CC)C(=O)c1ccc2c(c1)Sc1ccccc1C2=C1CC2CCC(C1)N2CCO [Compound 51, 9-[8-(2Hydroxy-ethyl)-8-aza-bicyclo[3.2.1]oct-3-ylidene]-9H-thioxanthene-3-carboxylic acid diethylamide]
Ki ([1]; rMOR Ki): > 100 nM
Ki ([2]; rDOR Ki): 4.85 nM
EC50 [3, 4]: 62.8 nM
